Results taken from US10781211B2, “Spirocycle compounds and methods of making and using same” (Lundbeck La Jolla Research Center, Inc., priority 2016, dated 2020).

What was measured:
Format in all cases: in vivo
Settings in all cases: 5 mg/kg oral gavage
MAGL = MAGL (Mus musculus (Mouse), UniProt O35678); experiment: Mouse brain proteomes from inhibitor treated mice (oral gavage, sacrifice 4 h after administration, ABPP analysis)
Procedure: Preparation of Mouse Brain Proteomes from Inhibitor Treated Mice.
Inhibitors were administered to wild-type C57Bl/6J by oral gavage in a vehicle, e.g. PEG400/Ethanol/PBS (7/2/1). Each animal was sacrificed 4 h following administration and brain proteomes were prepared and analyzed according to previously established methods (See Niphakis, M. J., et al. (2011) ACS Chem. Neurosci. and Long, J. Z., et al. Nat. Chem. Biol. 5:37-44). Data from this assay is shown in Table 2 (% inhibition at 5 mg/kg).

FAAH = FAAH (Mus musculus (Mouse), UniProt O08914); experiment: Mouse brain proteomes from inhibitor treated mice (oral gavage, sacrifice 4 h after administration, ABPP analysis), FAAH
Sequence of FAAH (O08914 whole entry): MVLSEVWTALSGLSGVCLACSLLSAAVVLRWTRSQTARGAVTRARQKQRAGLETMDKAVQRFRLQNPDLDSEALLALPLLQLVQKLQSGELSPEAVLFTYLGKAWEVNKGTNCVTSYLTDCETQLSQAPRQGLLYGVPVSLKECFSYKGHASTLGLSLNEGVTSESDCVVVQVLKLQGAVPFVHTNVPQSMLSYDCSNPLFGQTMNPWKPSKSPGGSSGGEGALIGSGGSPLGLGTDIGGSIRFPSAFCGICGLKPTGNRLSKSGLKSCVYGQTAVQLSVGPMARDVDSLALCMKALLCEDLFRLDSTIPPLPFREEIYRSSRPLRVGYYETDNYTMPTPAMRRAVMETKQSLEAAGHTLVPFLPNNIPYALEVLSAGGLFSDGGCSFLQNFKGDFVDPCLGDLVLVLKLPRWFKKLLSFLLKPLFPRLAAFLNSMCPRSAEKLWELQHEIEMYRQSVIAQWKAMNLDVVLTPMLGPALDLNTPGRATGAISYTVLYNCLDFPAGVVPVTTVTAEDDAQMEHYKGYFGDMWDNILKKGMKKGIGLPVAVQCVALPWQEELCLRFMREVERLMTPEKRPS
Outline: (§1)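 Oral dosing of C57Bl/6J wild-type mice at 5 mg/kg, brain collection 4 h afterwards, then ABPP of brain proteomes to give % target inhibition.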

ABHD6 = ABHD6 (Mus musculus (Mouse), UniProt Q8R2Y0); experiment: Mouse brain proteomes from inhibitor treated mice (oral gavage, sacrifice 4 h after administration, ABPP analysis), ABHD6
Sequence of ABHD6 (Q8R2Y0 whole entry): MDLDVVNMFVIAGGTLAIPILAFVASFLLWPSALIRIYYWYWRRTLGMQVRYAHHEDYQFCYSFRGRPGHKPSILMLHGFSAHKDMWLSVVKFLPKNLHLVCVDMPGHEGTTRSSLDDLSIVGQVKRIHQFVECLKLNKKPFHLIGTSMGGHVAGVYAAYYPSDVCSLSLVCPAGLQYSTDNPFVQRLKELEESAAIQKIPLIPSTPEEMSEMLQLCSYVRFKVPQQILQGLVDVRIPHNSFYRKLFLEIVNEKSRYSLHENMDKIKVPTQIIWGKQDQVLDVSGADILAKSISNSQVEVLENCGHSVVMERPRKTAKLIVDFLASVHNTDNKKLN
Outline: as §1

Sequence of MAGL (O35678 whole entry): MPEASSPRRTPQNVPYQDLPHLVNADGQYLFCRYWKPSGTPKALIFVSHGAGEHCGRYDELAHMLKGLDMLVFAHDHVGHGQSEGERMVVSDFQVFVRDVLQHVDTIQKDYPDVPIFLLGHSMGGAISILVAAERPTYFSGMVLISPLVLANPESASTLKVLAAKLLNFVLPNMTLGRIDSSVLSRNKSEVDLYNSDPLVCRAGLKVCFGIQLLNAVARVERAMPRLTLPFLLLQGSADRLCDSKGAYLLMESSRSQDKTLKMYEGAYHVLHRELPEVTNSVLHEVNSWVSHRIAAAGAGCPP

| Structure (SMILES) | MAGL % Inh 5 mg/kg (mouse) (MAGL) | FAAH % Inh 5 mg/kg (mouse) (FAAH) | ABHD6 % Inh 5 mg/kg (mouse) (ABHD6) |
| --- | --- | --- | --- |
| CCOc1ccc(CN2CCCC23CCN(C(=O)OC(C(F)(F)F)C(F)(F)F)CC3)cc1 [Example 4, 1,1,1,3,3,3-Hexafluoropropan-2-yl 1-(4-ethoxybenzyl)-1,8-diazaspiro[4.5]decane-8-carboxylate] | ### (### is ≥ 75%) | # (# is < 25%) | # (# is < 25%) |
| COc1cccc(CN2CCCC23CCN(C(=O)OC(C(F)(F)F)C(F)(F)F)CC3)c1Cl [Example 7, 1,1,1,3,3,3-Hexafluoropropan-2-yl 1-(2-chloro-3-methoxybenzyl)-1,8-diazaspiro[4.5]decane-8-carboxylate] | ### (### is ≥ 75%) | ### (### is ≥ 75%) | # (# is < 25%) |
| O=C(OC(C(F)(F)F)C(F)(F)F)N1CCC2(CCCN2Cc2cccc(OCCF)c2)CC1 [Example 27, 1,1,1,3,3,3-Hexafluoropropan-2-yl 1-(3-(2-fluoroethoxy)benzyl)-1,8-diazaspiro[4.5]decane-8-carboxylate] | ### (### is ≥ 75%) | # (# is < 25%) | # (# is < 25%) |
| O=C(OC(C(F)(F)F)C(F)(F)F)N1CCC2(CCCN2Cc2ccc(Cl)c(OCCF)c2)CC1 [Example 28, 1,1,1,3,3,3-Hexafluoropropan-2-yl 1-(4-chloro-3-(2-fluoroethoxy)benzyl)-1,8-diazaspiro[4.5]decane-8-carboxylate] | ### (### is ≥ 75%) | # (# is < 25%) | # (# is < 25%) |
| CCOc1cc(CN2CCCC23CCN(C(=O)OC(C(F)(F)F)C(F)(F)F)CC3)ccc1Cl [Example 32, 1,1,1,3,3,3-Hexafluoropropan-2-yl 1-(4-chloro-3-ethoxybenzyl)-1,8-diazaspiro[4.5]decane-8-carboxylate] | ### (### is ≥ 75%) | # (# is < 25%) | # (# is < 25%) |
| O=C(OC(C(F)(F)F)C(F)(F)F)N1CCC2(CCCN2Cc2cc(N3CCOCC3)cc(C(F)(F)F)c2)CC1 [Example 35, 1,1,1,3,3,3-Hexafluoropropan-2-yl 1-(3-morpholino-5-(trifluoromethyl)benzyl)-1,8-diazaspiro[4.5]decane-8-carboxylate] | ### (### is ≥ 75%) | # (# is < 25%) | # (# is < 25%) |
| O=C(OC(C(F)(F)F)C(F)(F)F)N1CCC2(CCCN2Cc2cc(OC(F)(F)F)cc(N3CCOCC3)c2)CC1 [Example 37, 1,1,1,3,3,3-Hexafluoropropan-2-yl 1-(3-morpholino-5-(trifluoromethoxy)benzyl)-1,8-diazaspiro[4.5]decane-8-carboxylate] | ### (### is ≥ 75%) | # (# is < 25%) | # (# is < 25%) |
| O=C(O)c1cc(CN2CCCC23CCN(C(=O)OC(C(F)(F)F)C(F)(F)F)CC3)ccc1C(F)(F)F [Example 179, 5-((8-((1,1,1,3,3,3-Hexafluoropropan-2-yloxy)carbonyl)-1,8-diazaspiro[4.5]decan-1-yl)methyl)-2-(trifluoromethyl)benzoic acid] | ### (### is ≥ 75%) |  | # (# is < 25%) |

The remaining lines, values ahead:

| MAGL % Inh 5 mg/kg (mouse) (MAGL) | FAAH % Inh 5 mg/kg (mouse) (FAAH) | ABHD6 % Inh 5 mg/kg (mouse) (ABHD6) | Structure (SMILES) |
| --- | --- | --- | --- |
| ### (### is ≥ 75%) | # (# is < 25%) | # (# is < 25%) | COc1cc(Cl)ccc1CN1CCCC12CCN(C(=O)OC(C(F)(F)F)C(F)(F)F)CC2 [Example 9, 1,1,1,3,3,3-Hexafluoropropan-2-yl 1-(4-chloro-2-methoxybenzyl)-1,8-diazaspiro[4.5]decane-8-carboxylate] |
| # (# is < 25%) | # (# is < 25%) | # (# is < 25%) | CN(C)C(=O)C1CCN(c2cc(C(F)(F)F)ccc2CN2CCCC23CCN(C(=O)OC(C(F)(F)F)C(F)(F)F)CC3)CC1 [Example 16, 1,1,1,3,3,3-Hexafluoropropan-2-yl 1-(2-(4-(dimethylcarbamoyl)piperidin-1-yl)-4-(trifluoromethyl)benzyl)-1,8-diazaspiro[4.5]decane-8-carboxylate] |
| ### (### is ≥ 75%) | # (# is < 25%) | # (# is < 25%) | O=C(OC(C(F)(F)F)C(F)(F)F)N1CCC2(CCN(Cc3ccc(C(F)(F)F)cc3N3CCOCC3)C2)CC1 [Example 22, 1,1,1,3,3,3-Hexafluoropropan-2-yl 2-(2-morpholino-4-(trifluoromethyl)benzyl)-2,8-diazaspiro[4.5]decane-8-carboxylate] |
| ### (### is ≥ 75%) | # (# is < 25%) | # (# is < 25%) | O=C(OC(C(F)(F)F)C(F)(F)F)N1CCC2(CCN(Cc3ccc(Cl)cc3N3CCCCC3)C2)CC1 [Example 24, 1,1,1,3,3,3-Hexafluoropropan-2-yl 2-(4-chloro-2-(piperidin-1-yl)benzyl)-2,8-diazaspiro[4.5]decane-8-carboxylate] |
| ### (### is ≥ 75%) | # (# is < 25%) | # (# is < 25%) | O=C(OC(C(F)(F)F)C(F)(F)F)N1CCC2(CCCN2Cc2ccc(Cl)cc2OCCF)CC1 [Example 30, 1,1,1,3,3,3-Hexafluoropropan-2-yl 1-(4-chloro-2-(2-fluoroethoxy)benzyl)-1,8-diazaspiro[4.5]decane-8-carboxylate] |
| ### (### is ≥ 75%) |  | # (# is < 25%) | O=C(OC(C(F)(F)F)C(F)(F)F)N1CCC2(CCCN2Cc2cc(Cl)cc(N3CCOCC3)c2)CC1 [Example 33, 1,1,1,3,3,3-Hexafluoropropan-2-yl 1-(3-chloro-5-morpholinobenzyl)-1,8-diazaspiro[4.5]decane-8-carboxylate] |
| ### (### is ≥ 75%) | # (# is < 25%) | # (# is < 25%) | O=C(OC(C(F)(F)F)C(F)(F)F)N1CCC2(CCCN2Cc2cc(Cl)cc(N3CCCC3)c2)CC1 [Example 34, 1,1,1,3,3,3-Hexafluoropropan-2-yl 1-(3-chloro-5-(pyrrolidin-1-yl)benzyl)-1,8-diazaspiro[4.5]decane-8-carboxylate] |
| ### (### is ≥ 75%) | # (# is < 25%) | # (# is < 25%) | O=C(OC(C(F)(F)F)C(F)(F)F)N1CCC2(CCCN2Cc2cc(N3CCCC3)cc(C(F)(F)F)c2)CC1 [Example 36, 1,1,1,3,3,3-Hexafluoropropan-2-yl 1-(3-(pyrrolidin-1-yl)-5-(trifluoromethyl)benzyl)-1,8-diazaspiro[4.5]decane-8-carboxylate] |
| ### (### is ≥ 75%) |  | # (# is < 25%) | O=C(OC(C(F)(F)F)C(F)(F)F)N1CCC2(CCCN2Cc2ccccc2Cl)CC1 [Example 60, 1,1,1,3,3,3-Hexafluoropropan-2-yl 1-(2-chlorobenzyl)-1,8-diazaspiro[4.5]decane-8-carboxylate] |
| ### (### is ≥ 75%) |  | # (# is < 25%) | O=C(OC(C(F)(F)F)C(F)(F)F)N1CCC2(CCCN2Cc2ccc(Cl)cc2N2CCC2)CC1 [Example 107, 1,1,1,3,3,3-Hexafluoropropan-2-yl 1-(2-(azetidin-1-yl)-4-chlorobenzyl)-1,8-diazaspiro[4.5]decane-8-carboxylate] |
